From US20160106711A1, “3-3-Di-Substituted-Oxindoles as Inhibitors of Translation Initiation” (President and Fellows of Harvard College, priority 2012, published 2016)

system: eIF2•GTP•Met-tRNAi ternary complex; assay: Ternary complex assay (ATF-4 assay), dual luciferase firefly/renilla ratio; type: cell-based, mouse; details: 80 uM
Text: For assay development, a bi-directional plasmid was designed in which a common promoter/enhancer complex drives the transcription of firefly luciferase (F-luc) ORF fused to the 5′ untranslated region (UTR) of ATF-4, and of the renilla luciferase (R-luc) ORF fused to a 90-nucleotide 5′ UTR derived from the plasmid (FIG. 6A). Because the tetracycline-regulated transactivator ((tTA), required for driving transcription from this vector) is not normally expressed in the mammalian cells, stable KLN cancer cells were constructed that expressed tTA (KLN-tTA).
The KLN-tTA colonies that drove expression of reporter genes from pBISA-DL plasmid were selected by transient transfection and dual luciferase assay. One of these KLN-tTA cell lines was transfected with the pBISA-DL^(ATF-4) expression vector, stable colonies were selected by dual luciferase assay and expanded.
Plasmids and Ternary Complex Assay
(ATF-4 Assay). Briefly, bi-directional mammalian expression vector pBI (Clontech, CA) was modified to expand the multiple cloning sites (MCSs) and designated thereafter as pBISA. This vector contains seven copies of the tetracycline-regulated transactivator response element (TRE), which together act as core promoter/enhancer. The TRE is flanked on both sides by minimal human cytomegalovirus (CMV) minimal promoters allowing bi-directional transcription and two MCSs. Firefly and renilla luciferases were subcloned into MCS-I and MCS-II, respectively. This plasmid, designated pBISA-DL, transcribes two mRNAs that contain the 90 nucleotide plasmid derived 5′UTR (same sequence in both mRNAs), and the ORF encoding either firefly or renilla luciferase followed by a polyadenylation sequence as described in Ziegeler, G.; Ming, J.; Koseki, J. C.; Sevinc, S.; Chen, T.; Ergun, S.; Qin, X.; Aktas, B. H. J. Biol. Chem. 2010, 285, 15408 hereby incorporated by reference. This plasmid was further modified by inserting the 5′UTR of ATF-4 into MCS-I in front of the firefly luciferase mRNA. Transcription from this direction generates an mRNA that contains the firefly luciferase ORF preceded by a 5′UTR composed of 90 nucleotides derived from the plasmid and 267 nucleotides derived from the 5′UTR of ATF-4 mRNA. Transcription from the other direction generates an mRNA that contains the renilla luciferase ORF proceeded only by the 90-nucleotide plasmid-derived sequence in the 5′UTR. This expression plasmid is called pBISA-DL(ATF-4). In the dual luciferase assay, cells expressing firefly and renilla luciferases were lysed and the extracts assayed with a Dual-Glo Luciferase assay kit, per manufacturer's instruction (Promega Inc., Madison, Wis.). The data calculations were carried out as the ratio of firefly to renilla luciferase signal as described in Chen, T.; Ozel, D.; Qiao, Y.; Harbinski, F.; Chen, L.; Denoyelle, S.; He, X.; Zvereva, N.; Supko, J. G.; Chorev, M.; Halperin, J. A.; Aktas, B. H. Nat. Chem. Biol. 2011, 7, 610 hereby incorporated by reference.

| Structure (SMILES) | ATF-4 Xmax |
| --- | --- |
| CCOC(=O)COc1ccccc1C1(c2cc(C(C)(C)C)ccc2OCC(=O)OCC)C(=O)Nc2ccccc21 (stereo not shown) [HY067] | 1.19 ± 0.19/80 uM |

same assay, conditions: Mus musculus, 10 uM, read-out: ATF-4 Xmax

| Structure (SMILES) | maximal fold induction at 10 µM |
| --- | --- |
| CC(C)(C)c1ccc(O)c(C2(c3cc(C(C)(C)C)ccc3O)C(=O)Nc3ccccc32)c1 [HY021, 3,3-Bis(5-tert-Butyl-2-Hydroxyphenyl)Indolin-2-One] | 5.2 ± 2.2 |

same assay, conditions: Mus musculus, 20 uM, read-out: ATF-4 Xmax

| Structure (SMILES) | maximal fold induction at 20 µM |
| --- | --- |
| CC(C)(C)c1ccc(O)c(C2(c3cc(C(C)(C)C)ccc3O)C(=O)Nc3ccccc32)c1 [HY021, 3,3-Bis(5-tert-Butyl-2-Hydroxyphenyl)Indolin-2-One] | 10.6 |
| CCCCc1ccc(O)c(C2(c3cc(CCCC)ccc3O)C(=O)Nc3ccccc32)c1 [HY048, 3,3-Bis(5-Butyl-2-Hydroxyphenyl)Indolin-2-One] | 5 ± 1.5 |
| CC(C)c1ccc(O)c(C2(c3cc(C(C)C)ccc3O)C(=O)Nc3ccccc32)c1 [HY050, 3,3-Bis(2-Hydroxy-5-Isopropylphenyl)Indolin-2-One] | 3.34 ± 0.07 |
| O=C1Nc2ccccc2C1(c1cc(C2CCCC2)ccc1OCCO)c1cc(C2CCCC2)ccc1OCCO [HY058] | 3.35 ± 0.74 |

same assay, conditions: Mus musculus, at 40 uM, read-out: ATF-4 Xmax @ 40 μM

| Structure (SMILES) | maximal fold induction at 40 µM |
| --- | --- |
| CC(C)(C)c1ccc(O)c(C2(c3cc(C(C)(C)C)ccc3O)C(=O)Nc3ccccc32)c1 [HY021, 3,3-Bis(5-tert-Butyl-2-Hydroxyphenyl)Indolin-2-One] | 4.4 |

system: KLN; assay: Cell growth assay (sulforhodamine B), KLN cells; type: cell-based, mouse; details: 5 days, SRB
Protocol: […] Plates were then incubated with 0.4% SRB in 1% acetic acid for 1 h, washed with 1% acetic acid to remove the unbound dye, and air-dried. The bound dye was solubilized by addition of 10 mM Tris (pH 10), and the absorbance was determined in a Titertek Multiscan plate reader at 490 nm. The data calculations were carried out as described (the values for mean±SD of data from replicate wells are calculated): data are expressed in terms of % T/C [(OD of treated cells/OD of control cells)×100], as a measure of cell viability and survival in the presence of test materials. Calculations are also made for the concentration of test agents giving a T/C value of 50%, or 50% growth inhibition (IC50). With the SRB assay, a measure is made of the cell population density at time 0 (the time at which drugs are added) from two extra reference plates of inoculated cells fixed with TCA just prior to drug addition to the test plates. Thus, we have three measurements: control optical density (C), test optical density (T), and optical density at time zero (T0). The calculation is 100×[(T−T0)/(C−T0)]. If T is less than T0, cell killing has occurred and can be calculated from 100×[(T−T0)/T0]. Thus, for each drug-cell line combination, a dose-response curve is generated and three levels of effect are calculated.

| Structure (SMILES) | IC50 [µM] |
| --- | --- |
| CCOC(=O)COc1ccccc1C1(c2cc(C(C)(C)C)ccc2OCC(=O)OCC)C(=O)Nc2ccccc21 (stereo not shown) [HY067] | 19.8 ± 1.3 |

same assay, conditions: Mus musculus, 120 h, 5 days, SRB

| Structure (SMILES) | IC50 [µM] |
| --- | --- |
| CC(C)(C)c1ccc(O)c(C2(c3cc(C(C)(C)C)ccc3O)C(=O)Nc3ccccc32)c1 [HY021, 3,3-Bis(5-tert-Butyl-2-Hydroxyphenyl)Indolin-2-One] | 12 ± 0.7 |
| CCCCc1ccc(O)c(C2(c3cc(CCCC)ccc3O)C(=O)Nc3ccccc32)c1 [HY048, 3,3-Bis(5-Butyl-2-Hydroxyphenyl)Indolin-2-One] | 14.3 ± 1.6 |
| CC(C)c1ccc(O)c(C2(c3cc(C(C)C)ccc3O)C(=O)Nc3ccccc32)c1 [HY050, 3,3-Bis(2-Hydroxy-5-Isopropylphenyl)Indolin-2-One] | 15.2 ± 2 |
| O=C1Nc2ccccc2C1(c1cc(C2CCCC2)ccc1OCCO)c1cc(C2CCCC2)ccc1OCCO [HY058] | 15.2 ± 1.1 |

system: CRL-2813; assay: Cell growth assay (sulforhodamine B), CRL-2813 cells; type: cell-based, human; details: 5 days, SRB
Protocol: (§1) Adherent mouse (KLN) and human solid tumor cells (CRL-2351, and CRL-2813) were plated in 96-well plates and maintained for 5 days in the presence of 0.54 to 6 μM of individual compound, and cell proliferation was measured by the sulforhodamine B (SRB) assay as described in ref. 11: briefly, cells were fixed in 10% cold trichloroacetic acid at 4° C. for 1 h, extensively washed with double-distilled H2O and air-dried. Plates were then incubated with 0.4% SRB in 1% acetic acid for 1 h, washed with 1% acetic acid to remove the unbound dye, and air-dried. The bound dye was solubilized by addition of 10 mM Tris (pH 10), and the absorbance was determined in a Titertek Multiscan plate reader at 490 nm. The data calculations were carried out as described (the values for mean±SD of data from replicate wells are calculated): data are expressed in terms of % T/C [(OD of treated cells/OD of control cells)×100], as a measure of cell viability and survival in the presence of test materials. Calculations are also made for the concentration of test agents giving a T/C value of 50%, or 50% growth inhibition (IC50). With the SRB assay, a measure is made of the cell population density at time 0 (the time at which drugs are added) from two extra reference plates of inoculated cells fixed with TCA just prior to drug addition to the test plates. Thus, we have three measurements: control optical density (C), test optical density (T), and optical density at time zero (T0). The calculation is 100×[(T−T0)/(C−T0)]. If T is less than T0, cell killing has occurred and can be calculated from 100×[(T−T0)/T0]. Thus, for each drug-cell line combination, a dose-response curve is generated and three levels of effect are calculated.

| Structure (SMILES) | IC50 [µM] |
| --- | --- |
| CCOC(=O)COc1ccccc1C1(c2cc(C(C)(C)C)ccc2OCC(=O)OCC)C(=O)Nc2ccccc21 (stereo not shown) [HY067] | 0.24 |

same assay, conditions: Homo sapiens, CRL2813, 120 h, 5 days, SRB

| Structure (SMILES) | IC50 [µM] |
| --- | --- |
| CC(C)(C)c1ccc(O)c(C2(c3cc(C(C)(C)C)ccc3O)C(=O)Nc3ccccc32)c1 [HY021, 3,3-Bis(5-tert-Butyl-2-Hydroxyphenyl)Indolin-2-One] | 10.2 ± 1.2 |
| CCCCc1ccc(O)c(C2(c3cc(CCCC)ccc3O)C(=O)Nc3ccccc32)c1 [HY048, 3,3-Bis(5-Butyl-2-Hydroxyphenyl)Indolin-2-One] | 3 |
| CC(C)c1ccc(O)c(C2(c3cc(C(C)C)ccc3O)C(=O)Nc3ccccc32)c1 [HY050, 3,3-Bis(2-Hydroxy-5-Isopropylphenyl)Indolin-2-One] | 2.9 ± 0.3 |
| O=C1Nc2ccccc2C1(c1cc(C2CCCC2)ccc1OCCO)c1cc(C2CCCC2)ccc1OCCO [HY058] | 1.3 ± 0.4 |

system: CRL-2351; assay: Cell growth assay (sulforhodamine B), CRL-2351 cells; type: cell-based, human; details: 5 days, SRB
Protocol: as §1

| Structure (SMILES) | IC50 [µM] |
| --- | --- |
| CCOC(=O)COc1ccccc1C1(c2cc(C(C)(C)C)ccc2OCC(=O)OCC)C(=O)Nc2ccccc21 (stereo not shown) [HY067] | 2.1 ± 1.1 |

same assay, conditions: Homo sapiens, 120 h, 5 days, SRB

| Structure (SMILES) | IC50 [µM] |
| --- | --- |
| CC(C)(C)c1ccc(O)c(C2(c3cc(C(C)(C)C)ccc3O)C(=O)Nc3ccccc32)c1 [HY021, 3,3-Bis(5-tert-Butyl-2-Hydroxyphenyl)Indolin-2-One] | 2.8 ± 0.4 |
| CCCCc1ccc(O)c(C2(c3cc(CCCC)ccc3O)C(=O)Nc3ccccc32)c1 [HY048, 3,3-Bis(5-Butyl-2-Hydroxyphenyl)Indolin-2-One] | 1.9 ± 0.5 |
| CC(C)c1ccc(O)c(C2(c3cc(C(C)C)ccc3O)C(=O)Nc3ccccc32)c1 [HY050, 3,3-Bis(2-Hydroxy-5-Isopropylphenyl)Indolin-2-One] | 2.6 ± 0.5 |
| O=C1Nc2ccccc2C1(c1cc(C2CCCC2)ccc1OCCO)c1cc(C2CCCC2)ccc1OCCO [HY058] | 2.4 ± 0.1 |
